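Step 1: Grow cells in 96-well plates. Step 2: Expose to compound for 48 hours at 5 concentrations. Step 3: Interpolate endpoints linearly; if unreached, use highest concentration. Here, GI50 denotes the concentration required for 50% inhibition of growth.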 Active and inactive are the calls of the source. Rule as the data show it: active = GI50 up to about 1.1 µM and inactive = higher.
Experiments:
Assay in all cases: NCI-60 cell line screen, 48 h
UO-31 = tested on: UO-31
UACC-62 = tested on: UACC-62
OVCAR-3 = tested on: OVCAR-3
SF-268 = tested on: SF-268
RPMI-8226 = tested on: RPMI-8226
UACC-257 = tested on: UACC-257
SW-620 = tested on: SW-620
NCI-H460 = tested on: NCI-H460
U-251 = tested on: U-251
KM-20L2 = tested on: KM-20L2
NCI-H23 = tested on: NCI-H23
IGROV-1 = tested on: IGROV-1
SK-MEL-5 = tested on: SK-MEL-5
HT-29 = tested on: HT-29
COLO 205 = tested on: COLO 205
MOLT-4 = tested on: MOLT-4
HCT-15 = tested on: HCT-15
OVCAR-8 = tested on: OVCAR-8
SK-MEL-28 = tested on: SK-MEL-28
SNB-19 = tested on: SNB-19

SMILES | GI50 (UO-31) | GI50 (UACC-62) | GI50 (OVCAR-3) | GI50 (SF-268) | GI50 (RPMI-8226) | GI50 (UACC-257) | GI50 (SW-620) | GI50 (NCI-H460) | GI50 (U-251) | GI50 (KM-20L2) | GI50 (NCI-H23) | GI50 (IGROV-1) | GI50 (SK-MEL-5) | GI50 (HT-29) | GI50 (COLO 205) | GI50 (MOLT-4) | GI50 (HCT-15) [µM] | GI50 (OVCAR-8) | GI50 (SK-MEL-28) | GI50 (SNB-19)
CCOC(=O)CN1CCS/C1=N/C#N | > 100 µM (inactive) | > 100 µM (inactive) | > 100 µM (inactive) | > 100 µM (inactive) | > 100 µM (inactive) | > 100 µM (inactive) | > 100 µM (inactive) | > 31.6 µM (inactive) | > 100 µM (inactive) | > 100 µM (inactive) | > 87.5 µM (inactive) | > 100 µM (inactive) | > 100 µM (inactive) | > 42.4 µM (inactive) | > 100 µM (inactive) | > 100 µM (inactive) | > 100 | > 100 µM (inactive) | > 100 µM (inactive) | > 100 µM (inactive)
O=NN(CCCl)C(=O)Nc1ccc(Cl)c(Cl)c1 | 45.7 µM (inactive) | 45.9 µM (inactive) | 41.9 µM (inactive) | 31.6 µM (inactive) | 50 µM (inactive) | > 100 µM (inactive) | > 100 µM (inactive) | 56.8 µM (inactive) | 52 µM (inactive) | 25.3 µM (inactive) | > 69.7 µM (inactive) | > 56.5 µM (inactive) | 71.6 µM (inactive) | 76.6 µM (inactive) | > 100 µM (inactive) | > 100 µM (inactive) | > 71.6 | 71.6 µM (inactive) | > 100 µM (inactive) | > 63 µM (inactive)
O=C1OC2CC=CC1C2 (stereo not given) | > 100 µM (inactive) | > 100 µM (inactive) | > 100 µM (inactive) | > 100 µM (inactive) | > 100 µM (inactive) | > 100 µM (inactive) | > 100 µM (inactive) | > 100 µM (inactive) | > 100 µM (inactive) | > 100 µM (inactive) | > 100 µM (inactive) | > 100 µM (inactive) | > 100 µM (inactive) | > 100 µM (inactive) | > 100 µM (inactive) | > 100 µM (inactive) | > 100 | > 100 µM (inactive) | > 100 µM (inactive) | > 100 µM (inactive)
CC1=CC(O)C(O)C2(C)C1CC1OC(=O)C(O)C3C(C)C(O)C4(O)OCC13C42 (stereo not given) | 110 µM (inactive) | 84.3 µM (inactive) | 10.2 µM (inactive) | 133 µM (inactive) | 16.9 µM (inactive) | 103 µM (inactive) | 24.7 µM (inactive) | 7.82 µM (inactive) | 62.8 µM (inactive) | 22.4 µM (inactive) | 49.5 µM (inactive) | 15.9 µM (inactive) | 29.4 µM (inactive) | 38.1 µM (inactive) | 20.1 µM (inactive) | 12.2 µM (inactive) | 335 | 32.1 µM (inactive) | 118 µM (inactive) | 13.7 µM (inactive)
COc1ccc(NC(=S)NNC(=O)c2nsc3ccccc23)cc1 | 25.2 µM (inactive) | 27.7 µM (inactive) | 22.2 µM (inactive) | 34.4 µM (inactive) | 22.3 µM (inactive) | 36 µM (inactive) | 48.4 µM (inactive) | 33.5 µM (inactive) | 40.8 µM (inactive) | 39.1 µM (inactive) | 41.8 µM (inactive) | 35.1 µM (inactive) | 30.8 µM (inactive) | 45.9 µM (inactive) | 43.9 µM (inactive) | 24.5 µM (inactive) | 21.8 | 43.7 µM (inactive) | 34.3 µM (inactive) | 26.9 µM (inactive)
Nc1ncnc2c1nnn2C1OC(CO)C(O)C1O (stereo not given) | 2.07 µM (inactive) | 5.7 µM (inactive) | 5.5 µM (inactive) | 6.3 µM (inactive) | 1.88 µM (inactive) | 8.93 µM (inactive) | 2.19 µM (inactive) | 2.13 µM (inactive) | 7.28 µM (inactive) | 4.2 µM (inactive) | 7.82 µM (inactive) | 1.19 µM (inactive) | 4 µM (inactive) | 6.78 µM (inactive) | 3.05 µM (inactive) | 5.41 µM (inactive) | 2.54 | 2.87 µM (inactive) | 12.4 µM (inactive) | 5.66 µM (inactive)
CCNC(=O)C(C)C1CCC2(C)C=CC(=O)C(C)=C2C1O (stereo not given) | > 73.6 µM (inactive) | > 100 µM (inactive) | > 100 µM (inactive) | > 100 µM (inactive) | > 100 µM (inactive) | > 100 µM (inactive) | > 100 µM (inactive) | > 100 µM (inactive) | > 76.4 µM (inactive) | > 100 µM (inactive) | > 100 µM (inactive) | 98.4 µM (inactive) | > 100 µM (inactive) | > 100 µM (inactive) | > 100 µM (inactive) | > 100 µM (inactive) | > 100 | > 100 µM (inactive) | > 100 µM (inactive) | > 100 µM (inactive)
CC[C@]12C=CCN3CC[C@@]4(c5ccc(OC)cc5N(C)[C@H]4[C@@](O)(C(=O)OC)[C@@H]1OC(C)=O)[C@@H]32 | 59 µM (inactive) | 143 µM (inactive) | 102 µM (inactive) | 138 µM (inactive) | 93.8 µM (inactive) | 172 µM (inactive) | > 200 µM (inactive) | 177 µM (inactive) | > 200 µM (inactive) | > 101 µM (inactive) | > 171 µM (inactive) | > 185 µM (inactive) | 99.5 µM (inactive) | > 200 µM (inactive) | > 185 µM (inactive) | 81.3 µM (inactive) | 75.3 | 19.5 µM (inactive) | > 200 µM (inactive) | > 200 µM (inactive)
